Experiment [1] deals with ADtg mice. Put plainly: Vascular cerebral amyloid angiopathy (CAA) score in ADtg mice. The experiment is classed as in vivo, mouse. The following applies: ADtg mice (FIG. 12). As to the method: (§1) ADtg mice (10 months old) received subcutaneous injections of GA [also known as Cop-1 and Copaxone®; 100 μg in phosphate-buffered saline (PBS)] or PBS alone (control group) twice a week for 1 week and then once a week for 8 weeks. For evaluation of innate immune infiltration to the brain by flow cytometry, 10-month-old ADtg mice received subcutaneous injections of GA (100 mg in PBS) or PBS alone twice a week for 1 week and then once a week for 3 weeks. At the end of the study, all mice were anaesthetized and then perfused with ice-cold PBS with 0.5 mM EDTA, after which their organs were collected and analyzed or fixed in 2.5% paraformaldehyde (Sigma-Aldrich), and cryoprotected with 30% sucrose for further histological analysis.
Following secondary antibody staining, the brain sections were stained with thioflavin-S(Thio-S, 1% w/v in 70% ethanol) (Sigma-Aldrich) for 10 min at room temperature, washed three times in 70% ethanol, and then washed once in distilled water, for 1 min each.

Experiment [2] concerns ADtg mice. The experiment in a line: Barnes maze behavioral test in AD mice. The experiment is classed as in vivo, mouse. As to the method: as §1
CD115^+ monocytes from mice donors were isolated as previously reported (Koronyo et al., Brain: a journal of neurology 2015,138:2399-2422). […]
The Barnes maze is a spatial-learning task that allows subjects to use spatial cues to locate a means of escape from a mildly aversive environment (open space with light projection); mice are required to use spatial cues to find an escape location. The mice are assessed for their ability to learn the location of an escape box over the course of 9 days in the Barnes maze apparatus. […]

Experiment [3] has as its system infiltrating OPN+CD45high cells. The experiment in a line: OPN+CD45high infiltrating cell count in ADtg mouse brain. The class given is in vivo. The following applies: cell count per section, vs PBS controls (FIG. 13F). As to the method: as §1
CD115^+ monocytes from mice donors were isolated as previously reported (Koronyo et al., Brain: a journal of neurology 2015,138:2399-2422). In brief, bone marrow cells were harvested from the femora, tibiae, and humeri and enriched for mononuclear cells on a Ficoll-Paque® PLUS (17-1440-03, GE Healthcare) density gradient. […]
The number and area (μm^2) of OPN+ cells, Iba1^+CD45^hi cells, GFAP^+ cells, Thio-S^+ amyloid-βplaques and 4G8^+ amyloid-βplaques were determined by examining four to six coronal sections per mouse at 150-μm intervals over an area covering both the hippocampal and cortical (including entorhinal and cingulate cortex) regions. […]

Regarding glatiramer acetate [GA], the “vascular cerebral amyloid angiopathy (CAA) burden” value in the experiment with ADtg mice [1] is on record as “decreases”. Also, the cognition result with ADtg mice [2] is listed as “retained cognition”. In addition, the “increase in number of infiltrating OPN+CD45high cells” value in experiment [3] is reported as 1.5 fold.

These data come from patent publication US11779600B2, “Methods of treating or preventing alzheimer's disease and associated conditions” (CEDARS-SINAI MEDICAL CENTER, priority 2016, dated 2023).
